In patent US8431530B2, “Compositions and methods for treating aids or cancer by inhibiting the secretion of microparticles” (priority 2009, dated 2013):

Experiments:
[1] = test system: Gag-GFP + HIV-1wtNef-RFP secretion, THP-1 Monocyte; test: Gag-GFP secretion in presence of wtNef-RFP, fluorescent plate reader assay; type: cell-based; conditions: Gag-GFP + HIV-1wtNef-RFP + peptide, 48 hours
Experimental: (§1) Cells were transfected with the pQBI-HIV Gag-GFP construct, wtNef-RFP, and either the antagonist (SMRwt peptide), the negative control SMRmt peptide, or a random peptide sM1 with Chariot for 48 hours. The conditioned supernatants from these cultures were assayed for GFP fluorescence by plate reader.

[2] = test system: Gag-GFP + HIV-1wtNef-RFP secretion, Jurkat; test: as above; type: cell-based; conditions: for Secretion relative to untransfected cells: Jurkat, Gag-GFP + HIV-1wtNef-RFP + peptide, 48 hours
Experimental: as §1

[3] = test system: MDA-MB-231 cells; test: Exosome (AChE marker) secretion from tumor cells, immunoblot; type: cell-based, human; conditions: MDA-MB-231, Chariot transfection, 48 hr, immunoblot densitometry normalized to tubulin; dose dependency in both compartments
Source text: FIG. 1 is a composite of diagrams showing the synthetic HIV-1 NefSMRwt peptide (antagonist) and HIV-1 NefSMRmt peptide (negative control) (panel A); the vector constructs expressing HIV-1 NefSMRwt peptide fused with GFP or HIV-1 NefSMRmt peptide fused with GFP (panel B); and the amount of acetylcholinesterase, a marker for exosomes, in MDA-MB-231 cells transfected with either HIV-1 NefSMRwt peptide (panelC) or SMRmt peptide (panel D). Untransfected MDA-MB-231 cells were used as negative controls. The cells were cultured for 48 hours in serum-free medium. One ml of supernatant was spun at 400,000×g. Supernatant pellets or set volume of cell lysate were run on PAGE, blotted, and probed with anti-AchE mAb (Acetylcholinesterase—1:1000 dilution; marker for exosomes). The cell lyasates were reprobed with anti-Tubulin mAb (1:4000). Bands were measured by densitometry, normalized against intracellular tubulin. Data shown here as percent relative to the untransfected control.
MDA-MB-231 cells were derived from human breast adenocarcinoma and […], and were obtained from the American Type Culture Collection (Manassas, Va.). […]
Pellets were resuspended in 1×SDS-PAGE loading buffer, separated by SDS-PAGE. […] Protein bands were detected by Western Blotting Luminol Reagent (Santa Cruz Biotechnology, Inc., Santa Cruz, Calif.). […]

[4] = test system: pNL4-3 in Jurkat cells; test: p24 assay of virion production after pNL4-3 co-transfection; type: cell-based, HIV; conditions: for amount of virus production (in words, Table I): 96 hours, pNL4-3 co-transfection; for p24 / Effect (a/b): Jurkat; for p24: co-transfected with pNL4-3; for Effect (a/b): p24 of sample / p24 of pNL4-3 + sM1
Experimental: I. Jurkat cells were co-transfected as shown below: (transfection efficiency 30-40% by Chariot Kit):
pNL4-3 is a clone containing the viral genome. Transfection into cells allows expression of the viral genome and ultimately virion formation and release. The amount of virion production in the extracellular supernatant is measured through p24 protein (viral protein). Samples were collected at 48 hours and 96 hours post-infection.
At 48 hr postinfection two plates in each group were removed and analyzed by: • a. p24 assay • b. Nef assay • c. Infectivity assay • At 96 hr postinfection the other two plates in each group were removed and analyzed by: • a. p24 assay • b. Nef assay • c. Infectivity assay

| Substance | Secretion relative to untransfected cells ([1]; first line) [x] | Secretion relative to untransfected cells ([1]; second line (not explained)) [x] | Secretion relative to untransfected cells ([2]; first line) [x] | Secretion relative to untransfected cells ([2]; second line (not explained)) [x] | AChE (exosome marker) intracellularly and in the cell supernatant [3] | amount of virus production (in words, Table I) [4] | p24 ([4]; 48 hr) [pg/mL] | Effect (a/b) ([4]; 48 hr) | p24 ([4]; 96 hr) [pg/mL] | Effect (a/b) ([4]; 96 hr) | release of Gag virus-like particles in the presence of wtNef-RFP (in words, Table III) ([2]; Jurkat and THP-1, Gag-GFP + wtNef-RFP) |
| --- | --- | --- | --- | --- | --- | --- | --- | --- | --- | --- | --- |
| H2N-AGFPVAAAGFPVDYKDDDDK-OH (H-AGFPVAAAGFPVDYKDDDDK-OH) [SMRmt] | 49.27 | 22.24 | 55.73 | 43.51 | no effect | no effect | 0 | 1 | 15 | 0.5 |  |
| H-VGFPVAAVGFPVDYKDDDDK-OH [SMRwt] | 0.95 | 0.91 | 1.3 | 1.16 | knocked down AChE intracellularly and in the cell supernatant | reduced drastically | 0 | 1 | 0 | <0.033 | blocks release of Gag virus-like particles |
